# Values joined by “and” are separate entries in the source; they are usually repeats but may differ in a detail not shown here. Equal entries are not always repeated.
# Columns and labels:
# [1] = molecular target: T1, 5-HT1A receptor (Rattus norvegicus, UniProt P19327); assay: Competitive 5-HT1A binding assay, [3H]8-OH-DPAT, hippocampal membranes; design: species or system Sprague Dawley rats; conditions: 5-HT1A receptor binding affinity; 1 nM [3H]8-OH-DPAT, hippocampal membrane; Cheng–Prusoff; read-out: Ki (µM, 95% CI)
# T1 construct: supplemented with 0.1% ascorbate, 5 mM MgCl2 and 80 µg of hippocampal membrane suspension; from tissue; host or cells: rat hippocampus membranes (Sprague Dawley)
# T1 sequence (P19327 1-422): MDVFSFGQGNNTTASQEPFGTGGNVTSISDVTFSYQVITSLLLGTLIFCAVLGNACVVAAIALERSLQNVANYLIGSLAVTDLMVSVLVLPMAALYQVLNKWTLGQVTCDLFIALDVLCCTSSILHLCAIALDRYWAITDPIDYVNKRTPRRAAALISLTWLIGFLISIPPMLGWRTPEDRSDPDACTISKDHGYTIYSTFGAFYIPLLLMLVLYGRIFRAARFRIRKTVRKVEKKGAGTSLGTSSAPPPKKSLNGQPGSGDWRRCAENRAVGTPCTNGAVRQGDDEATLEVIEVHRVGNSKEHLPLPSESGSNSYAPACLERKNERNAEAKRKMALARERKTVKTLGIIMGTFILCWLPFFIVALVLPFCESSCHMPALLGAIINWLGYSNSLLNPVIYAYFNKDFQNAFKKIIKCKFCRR
# Experimental: Brains were rapidly removed and placed on ice. Hippocampi (for 5-HT1A assays) and frontal cortices (for 5-HT2A assays) were dissected on a Petri dish. […] The homogenate was centrifuged at 48,000× g at 4 °C for 15 min. […] The centrifugation and suspension steps were repeated twice.
# Non-specific binding was determined with 10 μM serotonin. The final DMSO concentration in the assay was 5%. […] Each well was washed with 2 mL of 50 mM Tris-HCl (pH 7.4) buffer to separate bound ligands from free ones. Plates were left to dry overnight. […] Binding curves were fitted with one site non-linear regression.
# [2] = test system: MCF-7; assay: Cytotoxic activity, sulforhodamine B assay, MCF-7; type: cell-based; conditions: Homo sapiens, MCF7, MCF-7 breast cancer cells, 72 h
# Experimental: (§1) Media, serum and antibiotics for cell culture were from Lonza (Basel, Switzerland). MCF7 (ER+, PR+, HER2−), SKBR3 (ER−, […], HER2+) and MDA-MB231 (ER−, PR−, HER2−) human breast cancer cells; MCF10A non-cancer breast epithelial cells; LNCAP (androgen sensitive), DU145 and PC3 (androgen independent) human prostate cancer cells; and PNT1 non-cancer prostate epithelial cells were available in our laboratory. MCF7, SKBR3 and MDA-MB231 cells were cultured in DMEM, supplemented with 10% FBS, 2 mM glutamine, 100 units/mL penicillin and 100 units/mL streptomycin. MCF10A cells were cultured in MEBM and supplemented with 0.4% BPE, 0.1% hEGF, 0.1%, Insulin, 0.1% Hydrocortisone and 0.1% GA-1000. LNCAP and DU145 cells were cultured in RPMI and supplemented with 10% FBS, 2 mM glutamine, 100 units/mL penicillin and 100 units/mL streptomycin. PC3 and PNT1 cells were cultured in DMEM-F12 (1:1), supplemented with 10% FBS, 2 mM glutamine, 100 units/mL penicillin and 100 units/mL streptomycin. Cultures were maintained in a humidified atmosphere of 95% air and 5% CO2 at 37 °C. Treatment with compounds were carried out in culture conditions. For cell survival assay, cells were fixed with 50% trichloroacetic acid for at least 2 h at 4 °C, washed with distilled and de-ionized water, air-dried and stained for 30 min with 0.4% sulforhodamine B in 1% acetic acid. Unbound dye was removed, and 10 mM tris-HCl solution (pH 7.5) was added to dissolve the protein-bound dye. Cell survival was assessed by optical density determination at 510 nm using a microplate reader.
# (§2) Figure 2 Effect of novel thiazolinylphenyl-piperazines (2a–c) on BCa cell viability. MCF7, SKBR3 and MDA cells were treated with rising concentrations (5 μM, 10 μM, 25 μM, 50 μM, 100 μM) of 2a–c. After 72 h, cell viability was assessed by sulforhodamine B assay. The results were reported as percentage of viable cells compared to positive control (untreated cells that were considered to represent the maximum viability of 100%). […]
# [3] = test system: SKBR-3; assay: Cytotoxic activity, sulforhodamine B assay, SKBR-3; type: cell-based; conditions: Homo sapiens, SK-BR-3, SKBR-3 breast cancer cells, 72 h
# Experimental: as §1, §2
# [4] = test system: MDA-MB231; assay: Cytotoxic activity, sulforhodamine B assay, MDA-MB231; type: cell-based; conditions: Homo sapiens, MDA-MB-231, MDA-MB231 breast cancer cells, 72 h
# Experimental: as §1
# (§3) Figure 2 Effect of novel thiazolinylphenyl-piperazines (2a–c) on BCa cell viability. MCF7, SKBR3 and MDA cells were treated with rising concentrations (5 μM, 10 μM, 25 μM, 50 μM, 100 μM) of 2a–c. After 72 h, cell viability was assessed by sulforhodamine B assay. The results were reported as percentage of viable cells compared to positive control (untreated cells that were considered to represent the maximum viability of 100%). Data represent the mean ± SD of at least three independent triplicate experiments. * denotes statistically significant values compared with positive control (* adjp < 0.05, ** adjp < 0.01, *** adjp < 0.001).
# as §3, with “Figure 3” for “Figure 2”, “thiazolinylphenyl-piperazines (3a–c)” for “thiazolinylphenyl-piperazines (2a–c)”, “on PC3 and MDA” for “on BCa”, “viability. Cells” for “viability. MCF7, SKBR3 and MDA cells”, “of 3a-c.” for “of 2a–c.”, “< 0.001, **** adjp < 0.0001).” for “< 0.001).”
# [5] = test system: LNCAP; assay: Cytotoxic activity, sulforhodamine B assay, LNCAP; type: cell-based, human; conditions: 72 h, LNCAP prostate cancer cells
# Experimental: as §1
# as §3, with “Figure 1” for “Figure 2”, “on PCa” for “on BCa”, “viability. LNCAP, DU145” for “viability. MCF7, SKBR3”, “and PC3” for “and MDA”, “< 0.01).” for “< 0.01, *** adjp < 0.001).”
# [6] = test system: DU-145; assay: Cytotoxic activity, sulforhodamine B assay, DU-145; type: cell-based; conditions: Homo sapiens, DU-145 prostate cancer cells, 72 h
# Experimental: as §1
# as §2, with “Figure 1” for “Figure 2”, “on PCa” for “on BCa”, “viability. LNCAP, DU145” for “viability. MCF7, SKBR3”, “and PC3” for “and MDA”
# [7] = test system: PC-3; assay: Cytotoxic activity, sulforhodamine B assay, PC-3; type: cell-based; conditions: Homo sapiens, PC-3 prostate cancer cells, 72 h
# Experimental: as §1
# Figure 1 Effect of novel thiazolinylphenyl-piperazines (2a–c) on PCa cell viability. LNCAP, DU145 and PC3 cells were treated with rising concentrations (5 μM, 10 μM, 25 μM, 50 μM, 100 μM) of 2a–c. After 72 h, cell viability was assessed by sulforhodamine B assay. […]
# Figure 3 Effect of novel thiazolinylphenyl-piperazines (3a–c) on PC3 and MDA cell viability. […] After 72 h, cell viability was assessed by sulforhodamine B assay. […]
Compound,Ki [1],IC50 [2] [µM],IC50 [3] [µM],IC50 [4] [µM],"IC50 ([5]; Homo sapiens, LNCaP) [µM]",IC50 [6] [µM],IC50 [7] [µM],IC50 [5] [µM],melting point [°C]
"c1cc(C2=NCCS2)cc(N2CCNCC2)c1 [2b, 2-(3-(Piperazin-1-yl)phenyl)-4,5-dihydrothiazole]",0.412 µM,15.9 ± 1.8,27.6 ± 5.6,40 ± 9.8,48.5 ± 7.3,66.6 ± 9.4,,,
"c1ccc(N2CCNCC2)c(C2=NCCS2)c1 [2a, 2-(2-(Piperazin-1-yl)phenyl)-4,5-dihydrothiazole]",2.29 µM and 2.3 µM,14.7 ± 1.9,28.2 ± 4.1,31.4 ± 5.1,67.2 ± 13.1,66.6 ± 7.3,,,
"CC(=O)N1CCN(c2ccc(C3=NCCS3)cc2)CC1 [3c, 1-(4-(4-(4,5-Dihydrothiazol-2-yl)phenyl)piperazin-1-yl)ethan-1-one]",,,,47.1 ± 6.7,,,32.1 ± 10.2,,
"CC(=O)N1CCN(c2cccc(C3=NCCS3)c2)CC1 [3b, 1-(4-(3-(4,5-Dihydrothiazol-2-yl)phenyl)piperazin-1-yl)ethan-1-one]",,,,34.6 ± 5.4,,,65 ± 7.4,,
"c1cc(N2CCNCC2)ccc1C1=NCCS1 [2c, 2-(4-(Piperazin-1-yl)phenyl)-4,5-dihydrothiazole]",49.5 µM,19.5 ± 2.3,27.7 ± 4.8,36.3 ± 7.7,32,47.7 ± 11.7,,31.9 ± 9.2,
"CC(=O)N1CCN(c2ccccc2C2=NCCS2)CC1 [3a, 1-(4-(2-(4,5-Dihydrothiazol-2-yl)phenyl)piperazin-1-yl)ethan-1-one]",,,,23.3 ± 3.4,,,73.3 ± 10.3,,90 to 92
